The source of these data is patent publication US20230416329A1, “A PEPTIDE WITH DISULFIDE BONDS AND INHIBITORY ACTIVITY AGAINST SERINE PROTEASES, DERIVED HYBRID PEPTIDES THEREOF, AND USES THEREOF” (INSTITUTE OF MATERIA MEDICA , CHINESE ACADEMY OF MEDICAL …, priority 2020, published 2023).

Bridge positions count the residues as written; N and C are the ends. Square brackets hold non-standard residues; d marks the D form. Peptide text beside a SMILES is read from it. Hyp = O=C(O)[C@@H]1C[C@@H](O)CN1

This test has as its target α-chymotrypsin (Bos taurus, UniProt P00766). The test can be described thus: Chymotrypsin inhibitory activity of peptides (AAPFpNA hydrolysis; IC50, Ki, residual activity). In kind it is biochemical. The settings on record: for IC50: chymotrypsin 30 nM, AAPFpNA 0.5 mM; for Ki: Ki=IC50/(1+S/Km), Km 0.38 mM. The protocol:
The inhibition constants of various synthetic active peptide inhibitors (molecular scaffolds) against seine proteases were measured. The substrates N-succinyl-Ala-Ala-Pro-Phe-p-nitroaniline (AAPFpNA), Nα—Benzoyl-L-arginine-4-nitroaniline hydrochloride (BApNA) and N-succinyl-[…] (AAApNA) are used in competitive binding reaction to determine the inhibitory activities against α-chymotrypsin, bovine trypsin, and porcine pancreatic elastase, respectively. Experiments for α-chymotrypsin and bovine trypsin inhibition were measured in 20 mM CaCl2, 50 mM Tris-HCl buffer (pH 7.8), and that for porcine elastase inhibition was measured in 50 mM Tris-HCl buffer (pH 8.0). The concentration of the peptide was measured using optical density (OD) at 280 nm. The Michaelis constant (Km) of the enzyme hydrolysis substrate is calculated from the initial rate of substrate hydrolysis at 405 nm. The absorbance value of the substrate was measured at 405 nm after complete hydrolysis. All data were processed using nonlinear regression.
• (1) Added a total 190 μL of reaction buffer (20 mM CaCl2, 50 mM Tris-HCl (pH 7.8)) into the 96 well plate, followed by preheating at 37° C. for 15 min. Then added 2 μL of different concentrations of substrates (p-Nitroanilide, pNA, 0.5% in DMSO), and mixed by centrifugation at 500 rpm for 1 min. Finally, the plate was incubated at 37° C. for 20 min, and the absorbance value at 405 nm was measured. In the 200 μL of reaction system, the final concentrations of pNA were 0, 0.025, 0.05, 0.075, 0.1, 0.125, 0.15, 0.25, and 0.3 mM, respectively. Make three repetitions for each concentration and plot the OD405 m value with pNA concentration to obtain the standard curve. • (2) Added a total 190 μL of reaction buffer (20 mM CaCl2, 50 mM Tris-HCl (pH 7.8)) and 8 μL of 0.75 μM chymotrypsin into the 96 well plate, followed by preheating at 37° C. for 5 min. Then added 2 μL of different concentrations of substrates (AAPFpNA, dissolved in DMSO), and mixed by centrifugation at 500 rpm for 1 min. Finally, the plate was incubated at 37° C. for 20 min, and the absorbance value at 405 nm was measured. In the 200 μL of reaction system, the final concentrations of AAPFpNA were 0, 0.125, 0.25, 0.285, 0.33, 0.4, and 0.5 mM, respectively. Make three repetitions for each concentration and plot the OD405 nm value with time to obtain the corresponding curve. Divide the slope of the curve by the slope of the standard curve and the enzyme concentration to obtain the initial velocity V0 (mM/(min*mM protein). Plot the initial velocity V0 with the concentration of substrate AAPFpNA using Prism software, and the Michaelis constant Km value of chymotrypsin hydrolyzing AAPFpNA was obtained.
• (1) Added a total 190 μL of reaction buffer (20 mM CaCl2, 50 mM Tris-HCl (pH 7.8)), different concentrations of anti-chymorypsin peptides (CHs) into the pre-cold 96 well plate, followed by preheating at 37° C. for 5 min and centrifugated at 500 rpm for 1 min and allowed to stand for 4 minutes. Then added 8 μL of 750 nM chymotrypsin and incubated at 37° C. for 10 min, and centrifugated at 500 rpm for 1 min and allowed to stand for 9 minutes. Finally, added 2 μL of 50 mM AAPFpNA, and mixed by centrifugation at 500 rpm for 1 min. The plate was incubated at 37° C. for 90 min, and the absorbance value at 405 nm was measured. Three repetitions were made, and only reaction buffer and substrate were added in the blank control as the minimum absorption value (Min OD405 nm); Only reaction buffer, enzyme and substrate were added in the negative control as the maximum absorption value (Max OD405). • (2) In the 200 μL of reaction system, the final concentrations of chymotrypsin and AAPFpNA were 30 nM and 0.5 mM, respectively. • (3) Data statistics
Residual activity of enzyme (%)=(1−(Max OD405 nm−Sample OD405 nm)/(Max OD405 nm−Min OD405 nm))*100 […]

What is called IC50 is the concentration at which inhibition is half-maximal. Higher therefore signals lower potency. On to `CC[C@H](C)[C@@H]1NC(=O)[C@H](CO)NC(=O)[C@H](Cc2ccc(O)cc2)NC(=O)[C@H]([C@@H](C)O)NC(=O)[C@H](C)NC(=O)[C@H]([C@@H](C)O)NC(=O)CNC(=O)[C@@H](N)CSSC[C@@H](C(=O)N[C@@H](Cc2ccc(O)cc2)C(=O)NCC(=O)O)NC(=O)[C@H](CCC(N)=O)NC(=O)[C@@H]2CCCN2C(=O)[C@@H]2CCCN2C1=O` [CH22] (H-CGTATYSIPPQCYG-OH; disulfide 1-12; N-terminus and C-terminus assumed), for which the IC50 was over 50000 nM.
By Ki is commonly meant a measure of affinity in units of concentration, obtained from inhibition or displacement. Low readings indicate a stronger hold on the target, high ones a looser hold on the target. Take `CC[C@H](C)[C@@H]1NC(=O)[C@H](CO)NC(=O)[C@H](Cc2ccc(O)cc2)NC(=O)[C@H]([C@@H](C)O)NC(=O)[C@H](C)NC(=O)[C@H](CO)NC(=O)CNC(=O)[C@@H](N)CSSC[C@@H](C(=O)N[C@H](C(=O)NCC(=O)O)C(C)C)NC(=O)[C@H](CCC(N)=O)NC(=O)[C@H](C)NC(=O)[C@@H]2CCCN2C1=O` [CH23] (H-CGSATYSIPAQCVG-OH; disulfide 1-12; N-terminus and C-terminus assumed): the “inhibitory activity against chymotrypsin (in words)” value is given as “good inhibitory activity”, the Ki is 1860 nM and the IC50 was determined as 4310 nM.
In turn, `CC[C@H](C)[C@@H]1NC(=O)[C@H](CO)NC(=O)[C@H](CC(C)C)NC(=O)[C@H]([C@@H](C)O)NC(=O)[C@@H](NC(=O)[C@@H](N)Cc2ccccc2)CSSC[C@@H](C(=O)N[C@@H](Cc2ccc(O)cc2)C(=O)NCC(=O)O)NC(=O)[C@H](CCC(N)=O)NC(=O)[C@@H]2CCCN2C(=O)[C@@H]2CCCN2C1=O` [CH19] (H-FCTLSIPPQCYG-OH; disulfide 2-10; N-terminus and C-terminus assumed) returned a Ki of 4870 nM and a concentration for half-maximal inhibition (IC50) of 11300 nM.
In the case of `CC[C@H](C)[C@@H]1NC(=O)[C@H](CO)NC(=O)[C@H](Cc2ccc(O)cc2)NC(=O)[C@H]([C@@H](C)O)NC(=O)CNC(=O)[C@H](CO)NC(=O)CNC(=O)[C@@H](N)CSSC[C@@H](C(=O)N[C@@H](Cc2ccc(O)cc2)C(=O)NCC(=O)O)NC(=O)[C@H](CCC(N)=O)NC(=O)[C@@H]2CCCN2C(=O)[C@@H]2CCCN2C1=O` [CH6] (H-CGSGTYSIPPQCYG-OH; disulfide 1-12; N-terminus and C-terminus assumed), the IC50 was over 50000 nM.
Molecule `CC[C@H](C)[C@H](N)C(=O)N[C@H]1CSSC[C@@H](C(=O)N[C@@H](Cc2ccccc2)C(=O)O)NC(=O)[C@H](CCC(N)=O)NC(=O)[C@H](C)NC(=O)[C@@H]2CCCN2C(=O)[C@H]([C@@H](C)CC)NC(=O)[C@H](CO)NC(=O)[C@H](Cc2ccccc2)NC(=O)[C@H]([C@@H](C)O)NC1=O` [CH40] (H-ICTFSIPAQCF-OH; disulfide 2-10; N-terminus and C-terminus assumed) had a Ki of 1060 nM and a half-inhibitory concentration (IC50) of 2460 nM.
For `C[C@@H]1NC(=O)[C@@H](NC(=O)[C@@H](N)Cc2ccccc2)CSSC[C@@H](C(=O)N[C@@H](CCC(N)=O)C(=O)O)NC(=O)[C@H](CCCCN)NC(=O)[C@@H]2CCCN2C(=O)[C@@H]2CCCN2C(=O)[C@H](Cc2ccc(O)cc2)NC(=O)[C@H](CO)NC(=O)[C@H](Cc2ccc(O)cc2)NC1=O` [CH45] (H-FCAYSYPPKCQ-OH; disulfide 2-10; N-terminus and C-terminus assumed) the same measures were 8290 nM and 19200 nM.
Regarding `CC[C@H](C)[C@@H]1NC(=O)[C@H](CO)NC(=O)[C@H](Cc2ccc(O)cc2)NC(=O)[C@H]([C@@H](C)O)NC(=O)[C@@H](NC(=O)[C@@H](N)Cc2ccccc2)CSSC[C@@H](C(=O)N[C@@H](Cc2ccc(O)cc2)C(=O)NCC(=O)O)NC(=O)[C@H](CCC(N)=O)NC(=O)[C@@H]2C[C@@H](O)CN2C(=O)[C@@H]2CCCN2C1=O` [CH52] (H-FCTYSIP[Hyp]QCYG-OH; disulfide 2-10), the affinity, expressed as Ki, was 360 nM and inhibition was half-maximal at 840 nM (IC50).
For the molecule `CC[C@H](C)[C@@H]1NC(=O)[C@H](CO)NC(=O)[C@H](Cc2ccccc2)NC(=O)[C@H](C)NC(=O)[C@H](CC(C)C)NC(=O)[C@@H](N)CSSC[C@@H](C(=O)N[C@@H](Cc2ccc(O)cc2)C(=O)NCC(=O)O)NC(=O)[C@H](CCC(N)=O)NC(=O)[C@@H]2CCCN2C(=O)[C@@H]2CCCN2C1=O` [CH2] (H-CLAFSIPPQCYG-OH; disulfide 1-10; N-terminus and C-terminus assumed), the IC50 is over 50000 nM.
Molecule `CC[C@H](C)[C@@H]1NC(=O)[C@H](CO)NC(=O)[C@H](Cc2ccccc2)NC(=O)[C@H](C)NC(=O)[C@H](CC(C)C)NC(=O)CNC(=O)[C@@H](N)CSSC[C@@H](C(=O)N[C@@H](Cc2ccc(O)cc2)C(=O)NCC(=O)O)NC(=O)[C@H](CCC(N)=O)NC(=O)[C@@H]2CCCN2C(=O)[C@@H]2CCCN2C1=O` [CH3] (H-CGLAFSIPPQCYG-OH; disulfide 1-11; N-terminus and C-terminus assumed) came in with an IC50 of over 50000 nM.
As to `CC[C@H](C)[C@@H]1NC(=O)[C@H](CO)NC(=O)[C@H](Cc2ccc(O)cc2)NC(=O)[C@H]([C@@H](C)O)NC(=O)[C@@H](NC(=O)[C@@H](N)CO)CSSC[C@@H](C(=O)N[C@@H](Cc2ccc(O)cc2)C(=O)NCC(=O)O)NC(=O)[C@H](CCC(N)=O)NC(=O)[C@@H]2CCCN2C(=O)[C@@H]2CCCN2C1=O` [CH4] (H-SCTYSIPPQCYG-OH; disulfide 2-10; N-terminus and C-terminus assumed), the affinity corresponds to a Ki of 550 nM and the IC50 was 1280 nM. For the same molecule, the “Residual activity of chymotrypsin” value (peptide 0.001 μM) amounted to 103.2 ± 0.9%. The “Residual activity of chymotrypsin” value (peptide 0.01 μM) turned out to be 101.8 ± 0.8%. Moreover, for the setting “peptide 0.1 μM”, the “Residual activity of chymotrypsin” value came to 100.7 ± 2.0%. The “Residual activity of chymotrypsin” value (peptide 0.3 μM) came out at 86.7 ± 1.4%. For the same molecule, the “Residual activity of chymotrypsin” value (peptide 0.6 μM) is 70.4 ± 2.8%. The “Residual activity of chymotrypsin” value (peptide 2.5 μM) is 34.6 ± 4.3%. Also, where the note is “peptide 7.5 μM”, the “Residual activity of chymotrypsin” value is recorded as 13.8 ± 0.6%. Also, the “Residual activity of chymotrypsin” value (peptide 10 μM) stood at 9.3 ± 1.1%. Further, under “peptide 100 μM”, the “Residual activity of chymotrypsin” value turned out to be 0.7 ± 0.1%. For the same molecule, the “Residual activity of chymotrypsin” value (peptide 1000 μM) is listed as 0.2 ± 0.0%.
`CC[C@H](C)[C@@H]1NC(=O)[C@H](CO)NC(=O)[C@H](Cc2ccccc2)NC(=O)[C@H]([C@@H](C)O)NC(=O)[C@@H](NC(=O)[C@@H](N)CC(C)C)CSSC[C@@H](C(=O)N[C@@H](Cc2ccc(O)cc2)C(=O)NCC(=O)O)NC(=O)[C@H](CCC(N)=O)NC(=O)[C@@H]2CCCN2C(=O)[C@@H]2CCCN2C1=O` [CH1] (H-LCTFSIPPQCYG-OH; disulfide 2-10; N-terminus and C-terminus assumed) displayed a Ki of 460 nM and an IC50 of 1070 nM. Besides, the “Residual activity of chymotrypsin” value (peptide 0.001 μM) came to 103.5 ± 1.6%. In addition, the “Residual activity of chymotrypsin” value (peptide 0.01 μM) is listed as 104.8 ± 7.2%. Besides, the “Residual activity of chymotrypsin” value (peptide 0.1 μM) amounted to 93.6 ± 5.5%. The “Residual activity of chymotrypsin” value (peptide 1 μM) was determined as 55.0 ± 3.3%. Also, the “Residual activity of chymotrypsin” value (peptide 3 μM) is 26.4 ± 1.1%. In addition, the “Residual activity of chymotrypsin” value (peptide 10 μM) is reported as 10.6 ± 0.2%. Under “peptide 100 μM”, the “Residual activity of chymotrypsin” value is recorded as 1.2 ± 0.1%. Moreover, the “Residual activity of chymotrypsin” value (peptide 300 μM) was found to be 0.3 ± 0.1%. Also, the “Residual activity of chymotrypsin” value (peptide 1000 μM) is listed as 0.5 ± 0.1%.
